Entries after “also recorded” stand apart in the source; their conditions may differ.
What was measured:
NMDA receptors = conditions: at the concentrations tested here; cited from earlier work
ischemic retina = assay: Transient in vivo retinal ischemia-reperfusion (raised IOP), 7 days reperfusion; design: species or system mouse
Procedure: Various methods were employed to produce cell death. (1) Single cell apoptosis: CytC was injected into individual RGCs or Müller cells for 15 minutes after which retinas were incubated for 4 hours in oxygenated Ames medium before fixation. After streptavidin histology, apoptotic cells were detected with an anti-active caspase 3 antibody or with Terminal deoxynucleotidyl transferase dUTP nick end labeling (TUNEL) staining. (2) Excitotoxicity: To assess the contribution of GJs to cell death within populations of RGCs and amacrine cells we conducted parallel experiments in which retinas were preincubated for 20 minutes in normal Ames medium or in one containing the GJ blockers meclofenamic acid (MFA; 50 μM) or 18-beta-glycyrrhetinic acid (18Beta-GA; 25 μM). Both control and drug-treated retinas were then exposed for 1 hour to NMDA (100-300 μM) to induce excitotoxicity followed by 4 hours in the control Ames solution. (3) Retinal ischemia: Transient in vivo retinal ischemia was induced by introducing into the anterior chamber a 33-gauge needle attached to a saline-filled reservoir (0.9% sodium chloride) that was raised above the animal so as to increase intraocular pressure (IOP) to a level […]. MFA (2 μl, 500 μM) was administered intravitreally either 30 minutes before or 3 and 24 hours following the ischemic insult. The opposite eye was cannulated, but maintained at normal IOP to serve as a normotensive control. After 40-50 minutes, the needle was withdrawn and ischemia was evidenced by corneal whitening. After 7 days of reperfusion, mice were sacrificed and eyes were processed to assess retinal damage and neuronal death. We also employed oxygen-glucose deprivation (OGD) to induce in vitro ischemia, in which retina-eyecups or isolated retinal whole-mounts were exposed continuously to either a control, oxygenated Ringer solution, or one that was glucose-free and deoxygenated by bubbling extensively with 95% N2/5% CO2 at 34° C. Following 60 minutes in the OGD environment, retinas were transferred to a control, oxygenated Ames medium for 4 hours before processing to evaluate cell death. Apoptotic and necrotic cell death were assessed by cell counts following: (1) staining with Live/Death Viability Assay (calcein AM/ethidium homodimer (EthD) (Invitrogen); (2) TUNEL, or, (3) labeling for activated caspase 3. For population studies, dead cells were counted manually within 500×500 μm areas (5 areas per retina) from micrographs of whole-mounts using images acquired by confocal microscope. Nuclear cell counts were made per unit length (500 μm) of frozen retinal cross-sections labeled with propidium iodide (2 μg/ml). In some experiments, cells counts were limited to retrograde labeled RGCs in the GCL or certain subpopulation of amacrine cells, identified by specific markers, such as calretinin (CR), calbindin (CB) and choline acetyltransferase (ChAT) in the INL. Fluorescence intensity measures were made of glial fibrillary acidic protein (GFAP), which is overexpressed in Müller glial cells following retinal injury. Expression of GFAP and connexins were quantified by analysis of confocal images with Metavue software (Molecular Devices). Average pixel fluorescence intensities were measured by using uniform rectangular areas (3-5 per image) extending either from the GCL to the outer limiting membrane for GFAP or through the IPL for connexins. The intensity values were then averaged for at least 5 images from 3-5 independent experiments and data were normalized to controls.

[1] = system: cells in the GCL of mouse retinas; assay: NMDA-induced excitotoxic cell death in the GCL of retina-eyecups; type: cell-based
Procedure: All animal procedures were in compliance with the NIH Guide for the Care and Use of Laboratory Animals and approved by the Institutional Animal Care and Use Committees at SUNY College of Optometry. Experiments were performed on retinas of wild type (WT), connexin knockout (KO) mice (Cx36^−/−, Cx45^−/−, and Cx36^−/−/45^−/− dKO), and their heterozygous (Het) littermates. The methods used to impale and label neurons have been described previously (Hu et al., J Neurosci 23:[…] (2003); Völgyi et al., Journal of Comparative Neurology 512:664-687 (2009)). Briefly, flattened retina-eyecups were placed in a superfusion chamber, which was mounted on the stage of a BX51WI light microscope (Olympus) within a light-tight Faraday cage. […] The retina-eyecups were superfused with a modified, oxygenated Ames medium maintained at 35° C.
Various methods were employed to produce cell death. (1) Single cell apoptosis: CytC was injected into individual RGCs or Müller cells for 15 minutes after which retinas were incubated for 4 hours in oxygenated Ames medium before fixation. After streptavidin histology, apoptotic cells were detected with an anti-active caspase 3 antibody or with Terminal deoxynucleotidyl transferase dUTP nick end labeling (TUNEL) staining. (2) Excitotoxicity: To assess the contribution of GJs to cell death within populations of RGCs and amacrine cells we conducted parallel experiments in which retinas were preincubated for 20 minutes in normal Ames medium or in one containing the GJ blockers meclofenamic acid (MFA; 50 μM) or 18-beta-glycyrrhetinic acid (18Beta-GA; 25 μM). Both control and drug-treated retinas were then exposed for 1 hour to NMDA (100-300 μM) to induce excitotoxicity followed by 4 hours in the control Ames solution. (3) Retinal ischemia: Transient in vivo retinal ischemia was induced by introducing into the anterior chamber a 33-gauge needle attached to a saline-filled reservoir (0.9% sodium chloride) that was raised above the animal so as to increase intraocular pressure (IOP) to a level […]. MFA (2 μl, 500 μM) was administered intravitreally either 30 minutes before or 3 and 24 hours following the ischemic insult. […]
Apoptotic and necrotic cell death were assessed by cell counts following: (1) staining with Live/Death Viability Assay (calcein AM/ethidium homodimer (EthD) (Invitrogen); (2) TUNEL, or, (3) labeling for activated caspase 3. For population studies, dead cells were counted manually within 500×500 μm areas (5 areas per retina) from micrographs of whole-mounts using images acquired by confocal microscope. Nuclear cell counts were made per unit length (500 μm) of frozen retinal cross-sections labeled with propidium iodide (2 μg/ml).

[2] = MFA 500 μM, 2 μl intravitreal 30 min before ischemic insult
[3] = MFA intravitreal 3 and 24 hours after transient ischemia, measured one week after insult, p<0.01
[4] = MFA, transient ischemia, p<0.001

SMILES: Cc1ccc(Cl)c(Nc2ccccc2C(=O)O)c1Cl [MFA, meclofenamic acid]
- inhibitory effect on NMDA receptors in neurons (NMDA receptors): no inhibitory effect
- cell counts in the GCL (ischemic retina; [2]): preserved
- retinal thickness / retinal morphology (ischemic retina; [2]): preserved; also recorded: prevented changes
- GFAP expression (ischemic retina; [3]): maintenance of normal levels
- cell counts in the GCL (ischemic retina; [3]): maintenance of normal levels; also recorded: significantly limit
- retinal thickness (ischemic retina; [3]): maintenance of normal levels
- number of ChAT-positive ACs in the INL (ischemic retina; MFA, ischemic retinas, p>0.1): no effect
- number of CB-immunoreactive ACs in the INL (ischemic retina; [4]): prevented the loss; also recorded: largely prevented a reduction
- number of CR-immunoreactive ACs in the INL (ischemic retina; [4]): prevented the loss
- cell viability, blocker alone [1]: did not affect cell viability
- cell death in the GCL induced by excitotoxicity ([1]; retinas preincubated in 18Beta-GA 25 μM or MFA 50 μM, then NMDA 100-300 μM 1 h, vs NMDA alone, p<0.001): significantly reduced
